Experimental data published in publication PMC9402538, “Rational design of a sensitivity-enhanced tracer for discovering efficient APC–Asef inhibitors” (Nature Communications, 2022).
Values joined by “and” are separate entries in the source; they are usually repeats but may differ in a detail not shown here. Identical values can stand only once. Like-named read-outs stand apart in the source and are kept apart here. Where a SMILES comes first, the peptide text is derived from it. The star is where a group is joined. Pyrrole(1-Me-2-CO) = Cn1cccc1C(=O)*; Pyrrole2CO = O=C(c1ccc[nH]1)*; X2 = O=C(c1cncs1)*

What was measured:
APC (303–739) = target: T1, APC (303–739) (Homo sapiens, UniProt P25054); test: FP competitive assay using tracer 7; format: binding; settings: for IC50: Table 3 source data; for FP(mp): Tracer 7, replicate wells
T1 sequence (P25054 303-739): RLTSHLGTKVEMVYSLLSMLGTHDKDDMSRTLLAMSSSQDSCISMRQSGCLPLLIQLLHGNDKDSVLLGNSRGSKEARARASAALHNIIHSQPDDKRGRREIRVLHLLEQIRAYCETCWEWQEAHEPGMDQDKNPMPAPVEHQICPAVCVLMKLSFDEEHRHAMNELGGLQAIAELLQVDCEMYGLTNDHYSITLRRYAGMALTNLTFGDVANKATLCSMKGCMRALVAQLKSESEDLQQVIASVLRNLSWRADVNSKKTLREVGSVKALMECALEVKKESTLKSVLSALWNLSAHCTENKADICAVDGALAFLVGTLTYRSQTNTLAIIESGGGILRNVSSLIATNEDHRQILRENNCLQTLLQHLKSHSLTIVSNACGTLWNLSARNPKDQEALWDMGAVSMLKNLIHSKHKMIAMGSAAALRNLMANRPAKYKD
Procedure, shortened: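 Peptide dilutions were first incubated 1 h at room temperature with APC (303–739) in HEPES pH 7.5 buffer containing 300 mM NaCl, EDTA and DTT. Added FITC tracer 7 (400 nM stock) displaced over a further 1.5 h before polarization reading. IC50 values came from nonlinear regression fits of triplicate data.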

APC = target: T2, APC (Homo sapiens, UniProt P25054); test: FP competitive assay using tracer 1; format: binding; settings: for IC50: Supplementary Table 4, read-out: IC50, Tracer 1; for FP(mp): Tracer 1, triplicate raw readings
T2 sequence (P25054 303-739): T1 sequence (P25054 303-739)
Procedure: In our previous study, we established an FP assay for screening APC–Asef inhibitors using FITC-labeled tracer 1 (Ac–^176[…][FITC]^195–NH2)[16]. […]. However, their Kd values measured by isothermal titration calorimetry (ITC) actually vary up to more than 20 times[16],[17]. […].
FITC-labeled tracer peptides were obtained from Changzhou Kanglong Biotech Ltd. (Changzhou, Jiangsu, China). […]. The FP signal changes upon tracer binding were measured after 1.5 h of incubation using a Synergy neo microplate reader (BioTek Instruments, Inc.) and plotted against the protein concentration. The corresponding EC50 values were generated by fitting the curves with a nonlinear regression model. […]. To make a working solution, APC (303–739) was diluted in FP buffer (50 mM HEPES, pH 7.5, 300 mM NaCl, 1 mM EDTA, 1 mM DTT). […] The FP signals were measured after 1.5 h of incubation at room temperature using a Synergy neo microplate reader. Three controls were included on each plate, i.e., blank (without protein and tracer), 100% inhibition (free tracer only), and 0% inhibition (protein/tracer complex only) controls. All experiments were performed in triplicate. The IC50 values of peptides were calculated by nonlinear regression analysis using GraphPad Prism 7.0 software.

[1] = Repeat 1, read-out: IC50(μM) Repeat 1
[2] = Repeat 2, read-out: IC50(μM) Repeat 2
[3] = Repeat 3, read-out: IC50(μM) Repeat 3
[4] = mean of 3 repeats, read-out: IC50(μM) mean

Row | SMILES | IC50 (APC (303–739); [1]) [µM] | IC50 (APC (303–739); [2]) [µM] | IC50 (APC (303–739); [3]) [µM] | FP(mp) (APC (303–739); Conc. 0.0061 μM) | FP(mp) (APC (303–739); Conc. 0.0122 μM) | FP(mp) (APC (303–739); Conc. 0.0244 μM) | FP(mp) (APC (303–739); Conc. 0.05 μM) | FP(mp) (APC (303–739); Conc. 0.10 μM) | FP(mp) (APC (303–739); Conc. 0.20 μM) | FP(mp) (APC (303–739); Conc. 0.39 μM) | FP(mp) (APC (303–739); Conc. 0.78 μM) | FP(mp) (APC (303–739); Conc. 1.56 μM) | FP(mp) (APC (303–739); Conc. 3.13 μM) | FP(mp) (APC (303–739); Conc. 6.25 μM) | FP(mp) (APC (303–739); Conc. 12.50 μM) | FP(mp) (APC (303–739); Conc. 25.00 μM) | FP(mp) (APC (303–739); Conc. 50.00 μM) | IC50 (APC (303–739); [4]) [µM] | IC50 (APC) [nM] | FP(mp) (APC; Conc. 0.05 μM) | also measured
1 | CC(C)C[C@H](NC(=O)[C@H](CO)NC(=O)[C@H](CCC(=O)O)NC(=O)CNC(=O)[C@H](C)NC(=O)c1cncs1)C(=O)N[C@@H](Cc1ccc(O)cc1)C(=O)N[C@@H](CCC(=O)O)C(N)=O [MAI-508] (X2-AGESLYE-NH2) | 0.221 | 0.194 | 0.241 | 306 mp | 306 mp and 305 mp and 307 mp | 290 mp (2×) and 289 mp | 268 mp and 265 mp and 269 mp | 236 mp and 233 mp (2×) | 190 mp and 195 mp and 192 mp | 150 mp and 147 mp and 149 mp | 113 mp (2×) and 114 mp | 85 mp and 90 mp and 86 mp | 73 mp and 71 mp and 74 mp | 65 mp and 60 mp and 61 mp | 61 mp and 56 mp and 59 mp | 52 mp and 55 mp and 57 mp | 58 mp and 50 mp and 54 mp | 0.219 | 480 ± 160 | 185 mp and 183 mp and 179 mp | FP(mp) (APC; Conc. 0.10 μM): 180 mp and 181 mp and 176 mp; FP(mp) (APC; Conc. 0.20 μM): 173 mp and 176 mp; FP(mp) (APC; Conc. 0.39 μM): 162 mp and 161 mp; FP(mp) (APC; Conc. 0.78 μM): 105 mp and 98 mp and 106 mp; FP(mp) (APC; Conc. 1.56 μM): 54 mp and 56 mp; FP(mp) (APC; Conc. 3.13 μM): 52 mp and 48 mp and 49 mp; FP(mp) (APC; Conc. 6.25 μM): 50 mp and 47 mp and 48 mp; FP(mp) (APC; Conc. 12.50 μM): 47 mp and 46 mp; FP(mp) (APC; Conc. 25.00 μM): 50 mp and 48 mp and 46 mp; FP(mp) (APC; Conc. 100.00 μM): 50 mp and 47 mp; FP(mp) (APC; Conc. 200.00 μM): 51 mp and 48 mp and 49 mp; FP(mp) (APC; Conc. 400.00 μM): 51 mp and 49 mp
2 | CC(C)C[C@H](NC(=O)[C@H](CO)NC(=O)[C@H](CCC(=O)O)NC(=O)CNC(=O)[C@H](C)NC(=O)c1ccc[nH]1)C(=O)N[C@@H](Cc1ccc(O)cc1)C(=O)N[C@@H](CCC(=O)O)C(N)=O [MAI-509] (Pyrrole2CO-AGESLYE-NH2) | 0.595 | 0.526 | 0.599 | 288 mp and 294 mp and 291 mp | 287 mp and 290 mp and 289 mp | 290 mp (2×) and 292 mp | 281 mp and 276 mp and 278 mp | 261 mp and 262 mp and 266 mp | 233 mp and 232 mp and 238 mp | 196 mp and 201 mp and 193 mp | 163 mp and 164 mp (2×) | 129 mp and 126 mp (2×) | 103 mp and 101 mp (2×) | 81 mp and 84 mp and 83 mp | 71 mp and 69 mp and 67 mp | 65 mp and 63 mp (2×) | 63 mp and 60 mp (2×) | 0.573 | 640 ± 170 | 182 mp and 179 mp | FP(mp) (APC; Conc. 0.10 μM): 180 mp and 177 mp; FP(mp) (APC; Conc. 0.20 μM): 175 mp and 169 mp and 173 mp; FP(mp) (APC; Conc. 0.39 μM): 157 mp and 159 mp and 160 mp; FP(mp) (APC; Conc. 0.78 μM): 120 mp and 128 mp and 126 mp; FP(mp) (APC; Conc. 1.56 μM): 72 mp and 73 mp; FP(mp) (APC; Conc. 3.13 μM): 56 mp and 54 mp; FP(mp) (APC; Conc. 6.25 μM): 52 mp and 55 mp and 51 mp; FP(mp) (APC; Conc. 12.50 μM): 50 mp and 51 mp and 47 mp; FP(mp) (APC; Conc. 25.00 μM): 50 mp and 48 mp; FP(mp) (APC; Conc. 50.00 μM): 48 mp and 50 mp and 46 mp; FP(mp) (APC; Conc. 100.00 μM): 50 mp and 51 mp and 47 mp; FP(mp) (APC; Conc. 200.00 μM): 48 mp and 50 mp; FP(mp) (APC; Conc. 400.00 μM): 57 mp and 53 mp
3 | CC(C)C[C@H](NC(=O)[C@H](CO)NC(=O)[C@H](CCC(=O)O)NC(=O)CNC(=O)[C@H](C)NC(=O)c1cccn1C)C(=O)N[C@@H](Cc1ccc(O)cc1)C(=O)N[C@@H](CCC(=O)O)C(N)=O [MAI-510] ({Pyrrole(1-Me-2-CO)}-AGESLYE-NH2) | 0.366 | 0.34 | 0.303 | 303 mp | 296 mp and 295 mp and 301 mp | 291 mp and 290 mp and 295 mp | 274 mp and 278 mp and 275 mp | 247 mp and 251 mp and 254 mp | 216 mp and 217 mp and 220 mp | 171 mp and 173 mp and 169 mp | 131 mp and 132 mp (2×) | 98 mp and 97 mp and 95 mp | 71 mp and 73 mp and 75 mp | 62 mp and 60 mp and 65 mp | 52 mp and 53 mp and 55 mp | 50 mp (2×) and 55 mp | 47 mp and 50 mp (2×) | 0.336 | 490 ± 130 | 182 mp and 181 mp and 180 mp | FP(mp) (APC; Conc. 0.10 μM): 170 mp and 178 mp and 179 mp; FP(mp) (APC; Conc. 0.20 μM): 158 mp and 172 mp; FP(mp) (APC; Conc. 0.39 μM): 146 mp and 158 mp and 159 mp; FP(mp) (APC; Conc. 0.78 μM): 82 mp and 112 mp and 116 mp; FP(mp) (APC; Conc. 1.56 μM): 61 mp and 63 mp and 64 mp; FP(mp) (APC; Conc. 3.13 μM): 52 mp and 51 mp and 53 mp; FP(mp) (APC; Conc. 6.25 μM): 51 mp and 50 mp; FP(mp) (APC; Conc. 12.50 μM): 49 mp and 48 mp; FP(mp) (APC; Conc. 25.00 μM): 49 mp and 46 mp and 48 mp; FP(mp) (APC; Conc. 50.00 μM): 46 mp and 47 mp and 50 mp; FP(mp) (APC; Conc. 100.00 μM): 48 mp and 49 mp and 50 mp; FP(mp) (APC; Conc. 200.00 μM): 48 mp and 47 mp; FP(mp) (APC; Conc. 400.00 μM): 50 mp and 52 mp
